In patent US20040097598A1 (priority 2001, published 2004):
Read-outs that look alike come from different tables or passages of the source.

How the values were obtained:
MES seizure = assay: maximal electroshock (MES) seizure test; type: in vivo, mice; settings: for TI (therapeutic index): ratio TD50 (rotorod)/ED50 (MES); for TI (therapeutic index) / anticonvulsant activity: mice; for anticonvulsant activity / LogED50: MES test; for anticonvulsant activity: intraperitoneal; for LogED50: best-fit value, C5 vs C7 comparison
Description: (§1) Male CF-1 mice, weighing 28-30 g, were used as subjects (Charles River Canada, La Prairie, Quebec, Canada). Three to five subjects per drug dose were used to prescreen each compound for anticonvulsant activity. Prescreening involved injecting subjects with the drug at doses of 3, 6 mmol/kg and assessing activity and toxicity 30 min later. Promising compounds progressed to dose-response studies, which employed at least 50 subjects, 10 subjects per dose.
(§2) Compounds were dissolved in oil and injected intraperitoneally.
Thirty minutes after drug injection, the MES seizure test was administered. We used the procedure of Krall et al. (1978). In brief, a seizure was induced using the electrical current applied via corneal electrodes. The current was set to 50 mA with a 60 Hz sine wave pulse configuration and train duration of 0.2 sec. Seizure protection was defined in this model as a failure to extend the hind limbs to an angle greater than 90 degrees during the tonic period of the convulsion.
Data analysis was performed using GraphPad Prizm software package version 3.02 for Windows (GraphPad Software Inc, San Diego, Calif., USA). Both dose-response and toxicity data were fitted using non-linear sigmoidal dose-response model with variable slope: Y=Bottom+(Top-Bottom)/(1+10^((LogED50—X)*HillSlope)), where Bottom, Top, HillSlope and ED50 were the fitting parameters, X was the logarithm of drug concentration, and Y was the response parameter. ED50 and TD50, which are the concentrations that give a response in 50% subjects in seizure and toxicity tests, were determined as best-fit values. Therapeutic index (TI) was calculated as a ratio of TD50/ED50.

[1] = tested on: neurological deficit (rotorod); assay: rotorod toxicity test; type: in vivo; settings: dose giving rotorod failure in 50% subjects, about 25 min after intraperitoneal injection in oil, male CF-1 mice
Description: as §1, §2
The test was administered about 25 minutes after the injection. In brief, the diameter of a rotating rod was about 5 cm and the number of revolutions per minute was set at 6 rpm. Mice were placed on the rod so that it was rotated toward the animal. Animals that were not able to maintain their equilibrium on the rod for 1 min were again put on the rod a further two times.
Both dose-response and toxicity data were fitted using non-linear sigmoidal dose-response model with variable slope: Y=Bottom+(Top-Bottom)/(1+10^((LogED50—X)*HillSlope)), where Bottom, Top, HillSlope and ED50 were the fitting parameters, X was the logarithm of drug concentration, and Y was the response parameter. […] Therapeutic index (TI) was calculated as a ratio of TD50/ED50.

[2] = target: nicotinic acetylcholine receptors; settings: inhibition of acetylcholine ion channel, Alifimoff et al. (1993); cited from earlier work
[3] = tested on: pentylenetetrazole seizures; assay: pentylenetetrazole seizures after intraperitoneal acetoacetate; type: in vivo; settings: 15-30 min after intraperitoneal injection, mice or rats
Excerpt: (§3) Experiments of Keith and Helmholz involving the thujone model of epileptic seizures seemed to support Wilder's hypothesis (Helmholz & Keith 1930, Keith 1931, 1932a,b). […] The Keith's results and conclusions about anticonvulsant activity of acetoacetate are debatable. […] At the same time, acetoacetate easily decomposes to form acetone.

[4] = tested on: maximal electroshock seizures; assay: maximal electroshock seizures after intraperitoneal acetoacetate; type: in vivo; settings: 15-30 min after intraperitoneal injection, mice or rats
Excerpt: as §3

[5] = tested on: thujone model of epileptic seizures; settings: cited from earlier work
[6] = tested on: maximal electroshock (MES) model; assay: maximal electroshock (MES) model, acetone (FIG. 3); type: in vivo
Excerpt: (§4) The amygdala-kindled focus is a model of complex partial seizures in humans (Albright & Burnham 1980). These are notoriously drug resistant.
(§5) The AY-9944-induced seizures were quantified by measurement of the onset-to-offset durations of the slow spike-and-wave discharge (SWD) combined over the 20-min intervals. In the AY-9944 model, average ‘% SWD decrease’ was the response parameter.
(§6) Compounds may be examined for their efficacy as anticonvulsants using a number of different animal models, including the maximal electroshock (MES) model (human analog: tonic-clonic seizures) as described in Krall et al. (1978) and in Example 1 herein, the threshold pentylenetetrazole (PTZ) model (human analog: absence seizures) as described in Krall et al. (1978), the amygdala-kindling model (human analog: complex partial seizures with secondary generalization) as described in Albright & Burnham (1980), and the AY-9944 model (human analog, a typical absence, a component of the Lennox-Gastaut syndrome) as described in Cortez et al. (2001). The compounds may also be tested for their toxicity using standard assays, such as the standard rotorod assay as described in Dunham & Miya (1957) and Wlaz & Loscher (1998) and in Example 1 herein.

[7] = tested on: threshold pentylenetetrazole (PTZ) model; assay: threshold pentylenetetrazole (PTZ) model, acetone (FIG. 3); type: in vivo
Excerpt: as §4, §5, §6

[8] = tested on: amygdala-kindled seizures; assay: amygdala-kindling model, acetone (FIG. 3)
Excerpt: as §4, §5, §6

AY-9944-induced seizures = assay: AY-9944 model, acetone (FIG. 3); type: in vivo
Excerpt: as §4, §5, §6

seizures = assay: anticonvulsant action of the ketone bodies; settings: in vivo
Excerpt: The present inventors have studied the mechanism of action of the ketogenic diet in a series of animal experiments.

[9] = tested on: convulsions induced by isonicotinic acid; settings: pretreatment, rats; cited from earlier work
[10] = tested on: convulsions induced by electroshock; settings: pretreatment, rats; cited from earlier work
[11] = tested on: semicarbizide-induced convulsions; settings: given orally to mice; cited from earlier work
[12] = tested on: electrically evoked seizure; settings: exposed for 4 h to air containing acetone vapors; cited from earlier work
[13] = dose giving seizure protection in 50% subjects, MES test 30 min after intraperitoneal injection in oil, male CF-1 mice
[14] = Mus musculus, ip, 0.5 h, dose giving seizure protection in 50% subjects, MES test 30 min after intraperitoneal injection in oil, male CF-1 mice, read-out: ED50
[15] = mouse, in vivo, ip, read-out: TD50
[16] = given chronically for 28 days, rats

In the case of 2-Butanone, the ED50 (MES seizure; [13]) is reported as 5800 µmol/kg, the “TI (therapeutic index)” value (MES seizure) is reported as 1.7 and the TD50 [1] is reported as 10000 µmol/kg.

In the case of `CC(O)CCCO` (centres unmarked) [1,4-Pentanediol], the anticonvulsant activity (MES seizure) is reported as “absence of anticonvulsant activity”.

With `CCCCCCCCC(C)O` (centres unmarked) [2-Decanol] the ED50 (MES seizure; [13]) was “Not Active”, the “TI (therapeutic index)” value (MES seizure) was “Not Active” and the TD50 [1] was “Not Active”.

In the case of `CCCCCCCCC(C)=O` [2-Decanone], the ED50 (MES seizure; [13]) is reported as “Not Active”, the “TI (therapeutic index)” value (MES seizure) is reported as “Not Active” and the TD50 [1] is reported as “Not Actuve”.

For `CCCCCC(C)O` (centres unmarked) [2-Heptanol], the LogED50 (MES seizure) was “LogED50 = 0.1197”, the ED50 (MES seizure; [14]) was 1300 µmol/kg and the “TI (therapeutic index)” value (MES seizure) was 3.9. For the same compound, the TD50 [1, 15] was 5100 µmol/kg.

In the case of `CCCCCC(C)=O` [2-Heptanone], the LogED50 (MES seizure) is reported as “LogED50 = 0.4447”, the ED50 (MES seizure; [14]) is reported as 2800 µmol/kg and the “TI (therapeutic index)” value (MES seizure) is reported as 2.2. The TD50 [1, 15] was 6000 µmol/kg.

In the case of `CCCCC(C)=O` [2-Hexanone], the ED50 (MES seizure; Mus musculus, ip, 0.5 h) is reported as 2400 µmol/kg, the “TI (therapeutic index)” value (MES seizure) is reported as 1.8 and the TD50 [1, 15] is reported as 4400 µmol/kg.

For `CCCCCCCC(C)O` (centres unmarked) [2-Nonanol], the ED50 (MES seizure; [14]) was 1200 µmol/kg, the “TI (therapeutic index)” value (MES seizure) was 4.3 and the TD50 [1, 15] was 5000 µmol/kg.

With `CCCCCCCC(C)=O` [2-Nonanone] the ED50 (MES seizure; [14]) was 1700 µmol/kg, the “TI (therapeutic index)” value (MES seizure) was 9.4 and the TD50 [1, 15] was 15900 µmol/kg.

In the case of `CCCCCCC(C)O` (centres unmarked) [2-Octanol], the ED50 (MES seizure; [14]) is reported as 2000 µmol/kg, the “TI (therapeutic index)” value (MES seizure) is reported as 1.9 and the TD50 [1, 15] is reported as 3900 µmol/kg.

In the case of `CCCCCCC(C)=O` [2-Octanone], the ED50 (MES seizure; [14]) is reported as 3400 µmol/kg, the “TI (therapeutic index)” value (MES seizure) is reported as 1.8 and the TD50 [1, 15] is reported as 6000 µmol/kg.

For `CCCC(C)O` (centres unmarked) [2-Pentanol], the LogED50 (MES seizure) was “LogED50 = 0.2331”, the ED50 (MES seizure; [14]) was 1600 µmol/kg and the “TI (therapeutic index)” value (MES seizure) was 3.7. The TD50 [1, 15] was 5700 µmol/kg.

In the case of `CCCC(C)=O` [2-Pentanone], the LogED50 (MES seizure) is reported as “LogED50 = 0.5176”, the ED50 (MES seizure; Mus musculus, ip, 0.5 h) is reported as 3300 µmol/kg and the “TI (therapeutic index)” value (MES seizure) is reported as 2.2. The TD50 [1, 15] was 7200 µmol/kg.

In the case of `CCCCCCCCCC(C)=O` [2-Undecanone], the ED50 (MES seizure; [13]) is reported as “Not Active”, the “TI (therapeutic index)” value (MES seizure) is reported as “Not Active” and the TD50 [1] is reported as “Not Active”.

For `CCC(C)O` (centres unmarked) [2-butanol], the IC50 [2] is given as 60 to 70 mM.

For `CCCCCCC(=O)CC` [3-Nonanone], the ED50 (MES seizure; [14]) was 9600 µmol/kg, the “TI (therapeutic index)” value (MES seizure) was 2.2 and the TD50 [1, 15] was 20900 µmol/kg.

For `CCC(=O)CC` [3-Pentanone], the LogED50 (MES seizure) was “LogED50 = 0.5124”, the ED50 (MES seizure; [14]) was 3300 µmol/kg and the “TI (therapeutic index)” value (MES seizure) was 2.3. The TD50 [1, 15] was 7600 µmol/kg.

With `CCCC(=O)CCC` [4-Heptanone] the LogED50 (MES seizure) was “LogED50 = 0.2981”, the ED50 (MES seizure; [14]) was 2000 µmol/kg and the “TI (therapeutic index)” value (MES seizure) was 2.4. The TD50 [1, 15] was 4700 µmol/kg.

With `CCCCCC(=O)CCC` [4-Nonanone] the ED50 (MES seizure; [14]) was 5000 µmol/kg, the “TI (therapeutic index)” value (MES seizure) was 3.3 and the TD50 [1, 15] was 16300 µmol/kg.

For `CCCCC(=O)CCCC` [5-Nonanone], the ED50 (MES seizure; [14]) was 3600 µmol/kg, the “TI (therapeutic index)” value (MES seizure) was 3.6 and the TD50 [1, 15] was 13200 µmol/kg.

With `CCCCCC(=O)CCCCC` [6-Undecanone] the ED50 (MES seizure; [13]) was “Not Active”, the “TI (therapeutic index)” value (MES seizure) was “Not Active” and the TD50 [1] was “Not Active”.

For `CC(=O)CC(=O)O` [Acetoacetate], the “effect against pentylenetetrazole seizures” value [3] was “not effective” and the “effect against maximal electroshock seizures” value [4] was “not effective”.

In the case of `CC(O)CC(=O)O` (stereo not drawn) [Beta-hydroxybutyrate, beta-hydroxybutyrate], the anticonvulsant effect [5] is given as “not anticonvulsant”.

In the case of `CCCCOC(C)=O` [Butyl acetate], the anticonvulsant activity (MES seizure) is reported as “Series V - Inactive analogues”.

In the case of `CC(=O)CC(C)(C)O` [Diacetone], the anticonvulsant activity (MES seizure; listed as diacetone alcohol) is reported as “absence of anticonvulsant activity”.

In the case of `CCOC(=O)CC(C)=O` [Ethyl acetoacetate], the anticonvulsant activity (MES seizure) is reported as “absence of anticonvulsant activity”.

For `CCCCCC=O` [Hexanal], the anticonvulsant activity (MES seizure) was “inactive as anticonvulsants”.

In the case of `COCC(C)=O` [Methoxyacetone], the anticonvulsant activity (MES seizure) is reported as “absence of anticonvulsant activity”.

In the case of `CCCCCCCCC=O` [Nonanal], the anticonvulsant activity (MES seizure) is reported as “inactive as anticonvulsants”.

In the case of `CCCCCCCCC` [Nonane], the anticonvulsant activity (MES seizure) is reported as “inactive as anticonvulsant”.

For `CC(=O)CC(=O)O` [acetoacetic acid], the anticonvulsant effect [5] is given as “most marked anticonvulsant effects”.

For `CC(=O)CC(=O)[O-].[Na+]` [sodium acetoacetate], the anticonvulsant effect [5] is listed as “most marked anticonvulsant effects”.

For `CCCC(CCC)C(=O)O` [valproate], the ED50 (MES seizure; [14]) was 1400 µmol/kg, the “TI (therapeutic index)” value (MES seizure) was 2.7 and the TD50 [1, 15] was 3800 µmol/kg.

In the case of Acetone, the ED50 (MES seizure; [13]) is reported as 16200 µmol/kg, the ED50 (MES seizure; dose giving seizure protection in 50% subjects, MES test 30 min after intraperitoneal injection in oil, male CF-1 mice, listed as acetone) is reported as 16000 µmol/kg and the TD50 [1] is reported as 35200 µmol/kg. The seizure suppression [6] was “suppresses seizures”, the seizure suppression [7] was “suppresses seizures” and the seizure suppression ([8]; amygdala-kindling model) was “suppresses seizures”. The “development of kindled seizures” value [8, 16] was “significantly delayed”, the tolerability [8, 16] was “well tolerated” and the “effect against the kindled amygdala focus” value ([8]; sub-toxic doses) was “effective”. The seizure suppression (AY-9944-induced seizures) was “suppresses seizures”, the anticonvulsant (seizures) was “anticonvulsant” and the “protection against clonic-tonic convulsions” value [9] was “protected”. For the same compound, the “protection against clonic-tonic convulsions” value [10] was “protected”, the “semicarbizide-induced convulsions and mortality” value [11] was “reduce” and the “rats in which electrically evoked seizure is inhibited” value [12] was 50%.
